System: L. acidophilus NCFM
Assay: RNA-seq transcriptional analysis of L. acidophilus NCFM growing on plant glycosides
Type: cell-based, Lactobacillus acidophilus
[1] = LBA0329 Putative cell division protein, COG D
[2] = LBA0466 Hypothetical protein, COG C
[3] = LBA0500 MSM operon repressor, COG K
[4] = LBA0545 Hypothetical protein, COG L
[5] = LBA0547 Putative site-specific recombinase, COG L
[6] = LBA0573 Putative transcriptional regulator, COG K
[7] = LBA0607 Putative transcriptional regulator, COG K
[8] = LBA0672 Putative phosphate starvation inducible protein stress related, COG J
[9] = LBA0753 Multi-drug-type permease, COG GEPR
[10] = LBA0886 Sugar kinase-putative transcriptional regulator, COG KG
[11] = LBA0887 Hypothetical protein, COG C
[12] = LBA0897 Putative Cro-like protein, COG K
[13] = LBA0910 L-lactate dehydrogenase, COG C
[14] = LBA1021 Putative transcriptional regulator, COG K
[15] = LBA1220 Pyridine mercuric reductase, COG C
[16] = LBA1392 Mucus binding protein precursor Mub, COG J
[17] = LBA1411 Fumarate reductase flavoprotein subunit, COG CS
[18] = LBA1436 Glycerol uptake facilitator protein, COG G
[19] = LBA1457 Galactose-1-epimerase, COG G
[20] = LBA1458 Galactose-1-phosphate uridylyltransferase, COG G
[21] = LBA1462 Beta-galactosidase, COG G
[22] = LBA1463 Lactose permease, COG G
[23] = LBA1465 Transcription repressor of beta-galactosidasegene, COG K
[24] = LBA1467 Beta-galactosidase large subunit (lactase), COG G
[25] = LBA1468 Beta-galactosidase small subunit, COG G
[26] = LBA1481 D-ribose-binding protein precursor, COG G
[27] = LBA1482 Ribose ABC transporter, COG G
[28] = LBA1483 Ribose ABC transporter ATP binding protein, COG G
[29] = LBA1484 D-ribose pyranase, COG G
[30] = LBA1494 Lincomycin-resistance protein, COG GEPR
[31] = LBA1607 Phosphatidylserine decarboxylase precursor, COG I
[32] = LBA1632 NAD-dependent aldehyde dehydrogenase, COG C
[33] = LBA1653 Nicotinamide mononucleotide, COG H
[34] = LBA1684 Putative PTS system IIA component, COG G
[35] = LBA1689 Maltose-6′-phosphate Oucosidase, COG G
[36] = LBA1700 Transcriptional regulator-type, COG K
[37] = LBA1701 Melibiose operon regulatory protein, COG K
[38] = LBA1705 PTS system IIBC component, COG G
[39] = LBA1708 Transcriptional antiterminator, COG K
[40] = LBA1710 Thermostable pullulanase, COG G
[41] = LBA1812 Alpha-glucosidase II, COG G
[42] = LBA1870 Maltose phosphorylase, COG G
[43] = LBA1872 Oligo-1,6-glucosidase, COG G
[44] = LBA1955 Transcription regulator family protein, COG K
[45] = gene LBA0046 (Hypothetical protein)
[46] = gene LBA0149 (Putative nucleotide-binding protein)
[47] = gene LBA0263 (Hypothetical protein)

OCc1ccccc1O[C@@H]1O[C@H](CO)[C@@H](O)[C@H](O)[C@H]1O [Salicin]
Log2 differential normalized TPM ratio compared to glucose (LBA0016 Fructokinase, COG KG): 1.7
Log2 differential normalized TPM ratio compared to lactose (LBA0016 Fructokinase, COG KG): 0.5
Transcripts per million (rpm) (LBA0016 Fructokinase, COG KG): 300.8 rpm
Log2 differential normalized TPM ratio compared to glucose [1]: 0.4
Log2 differential normalized TPM ratio compared to lactose [1]: 0
Transcripts per million (rpm) [1]: 22.1 rpm
Log2 differential normalized TPM ratio compared to glucose [2]: 1.3
Log2 differential normalized TPM ratio compared to lactose [2]: -0.2
Transcripts per million (rpm) [2]: 238.1 rpm
Log2 differential normalized TPM ratio compared to glucose [3]: 1.4
Log2 differential normalized TPM ratio compared to lactose [3]: −0.3
Transcripts per million (rpm) [3]: 138.7 rpm
Log2 differential normalized TPM ratio compared to glucose [4]: 1.8
Log2 differential normalized TPM ratio compared to lactose [4]: −0.3
Transcripts per million (rpm) [4]: 259 rpm
Log2 differential normalized TPM ratio compared to glucose [5]: 1.5
Log2 differential normalized TPM ratio compared to lactose [5]: −0.3
Transcripts per million (rpm) [5]: 32.5 rpm
Log2 differential normalized TPM ratio compared to glucose [6]: −1.1
Log2 differential normalized TPM ratio compared to lactose [6]: −1.2
Transcripts per million (rpm) [6]: 43.7 rpm
Log2 differential normalized TPM ratio compared to glucose [7]: 0.8
Log2 differential normalized TPM ratio compared to lactose [7]: 0.3
Transcripts per million (rpm) [7]: 86.7 rpm
Log2 differential normalized TPM ratio compared to glucose [8]: 1.1
Log2 differential normalized TPM ratio compared to lactose [8]: 0.2
Transcripts per million (rpm) [8]: 3596.1 rpm
Log2 differential normalized TPM ratio compared to glucose [9]: 0.5
Log2 differential normalized TPM ratio compared to lactose [9]: 1.2
Transcripts per million (rpm) [9]: 70.4 rpm
Log2 differential normalized TPM ratio compared to glucose [10]: 0.3
Log2 differential normalized TPM ratio compared to lactose [10]: 0
Transcripts per million (rpm) [10]: 8.1 rpm
Log2 differential normalized TPM ratio compared to glucose [11]: 1.5
Log2 differential normalized TPM ratio compared to lactose [11]: 0.2
Transcripts per million (rpm) [11]: 160.2 rpm
Log2 differential normalized TPM ratio compared to glucose [12]: 0.1
Log2 differential normalized TPM ratio compared to lactose [12]: 2.5
Transcripts per million (rpm) [12]: 2.8 rpm
Log2 differential normalized TPM ratio compared to glucose [13]: 1.2
Log2 differential normalized TPM ratio compared to lactose [13]: 0.2
Transcripts per million (rpm) [13]: 301.8 rpm
Log2 differential normalized TPM ratio compared to glucose [14]: −0.5
Log2 differential normalized TPM ratio compared to lactose [14]: −0.8
Transcripts per million (rpm) [14]: 108.6 rpm
Log2 differential normalized TPM ratio compared to glucose [15]: 1.7
Log2 differential normalized TPM ratio compared to lactose [15]: 0.7
Transcripts per million (rpm) [15]: 654.9 rpm
Log2 differential normalized TPM ratio compared to glucose [16]: 0.1
Log2 differential normalized TPM ratio compared to lactose [16]: 0.3
Transcripts per million (rpm) [16]: 114.4 rpm
Log2 differential normalized TPM ratio compared to glucose [17]: 1.4
Log2 differential normalized TPM ratio compared to lactose [17]: 0.3
Transcripts per million (rpm) [17]: 5.9 rpm
Log2 differential normalized TPM ratio compared to glucose [18]: 3.8
Log2 differential normalized TPM ratio compared to lactose [18]: 0
Transcripts per million (rpm) [18]: 37.6 rpm
Log2 differential normalized TPM ratio compared to glucose [19]: 1.9
Log2 differential normalized TPM ratio compared to lactose [19]: −3.7
Transcripts per million (rpm) [19]: 55.9 rpm
Log2 differential normalized TPM ratio compared to glucose [20]: 1.8
Log2 differential normalized TPM ratio compared to lactose [20]: −3.8
Transcripts per million (rpm) [20]: 48.4 rpm
Log2 differential normalized TPM ratio compared to glucose (LBA1459 Galactokinase, COG G): 0.8
Log2 differential normalized TPM ratio compared to lactose (LBA1459 Galactokinase, COG G): −3.9
Transcripts per million (rpm) (LBA1459 Galactokinase, COG G): 42.2 rpm
Log2 differential normalized TPM ratio compared to glucose [21]: −0.1
Transcripts per million (rpm) [21]: 16.8 rpm
Log2 differential normalized TPM ratio compared to glucose [22]: 0.1
Log2 differential normalized TPM ratio compared to lactose [22]: −4.6
Transcripts per million (rpm) [22]: 62.2 rpm
Log2 differential normalized TPM ratio compared to glucose (LBA1464 Transposase, COG L): 0
Log2 differential normalized TPM ratio compared to lactose (LBA1464 Transposase, COG L): −2.4
Transcripts per million (rpm) (LBA1464 Transposase, COG L): 182.7 rpm
Log2 differential normalized TPM ratio compared to glucose [23]: −0.1
Log2 differential normalized TPM ratio compared to lactose [23]: −3.2
Transcripts per million (rpm) [23]: 52.9 rpm
Log2 differential normalized TPM ratio compared to glucose [24]: 1.5
Log2 differential normalized TPM ratio compared to lactose [24]: −7.3
Transcripts per million (rpm) [24]: 14.9 rpm
Log2 differential normalized TPM ratio compared to glucose [25]: 1
Log2 differential normalized TPM ratio compared to lactose [25]: −5.4
Transcripts per million (rpm) [25]: 43.3 rpm
Log2 differential normalized TPM ratio compared to glucose [26]: 0.4
Log2 differential normalized TPM ratio compared to lactose [26]: −0.4
Transcripts per million (rpm) [26]: 6.4 rpm
Log2 differential normalized TPM ratio compared to glucose [27]: 0.7
Log2 differential normalized TPM ratio compared to lactose [27]: −0.4
Transcripts per million (rpm) [27]: 6.1 rpm
Log2 differential normalized TPM ratio compared to glucose [28]: 0.4
Log2 differential normalized TPM ratio compared to lactose [28]: −0.7
Transcripts per million (rpm) [28]: 4.2 rpm
Log2 differential normalized TPM ratio compared to glucose [29]: 0.2
Log2 differential normalized TPM ratio compared to lactose [29]: −0.5
Transcripts per million (rpm) [29]: 4.5 rpm
Log2 differential normalized TPM ratio compared to glucose (LBA1485 Ribokinase, COG G): 0.5
Log2 differential normalized TPM ratio compared to lactose (LBA1485 Ribokinase, COG G): −0.3
Transcripts per million (rpm) (LBA1485 Ribokinase, COG G): 4.5 rpm
Log2 differential normalized TPM ratio compared to glucose [30]: 0.6
Log2 differential normalized TPM ratio compared to lactose [30]: 0.5
Transcripts per million (rpm) [30]: 8.2 rpm
Log2 differential normalized TPM ratio compared to glucose [31]: 0.9
Log2 differential normalized TPM ratio compared to lactose [31]: −0.2
Transcripts per million (rpm) [31]: 37.9 rpm
Log2 differential normalized TPM ratio compared to glucose [32]: 2
Log2 differential normalized TPM ratio compared to lactose [32]: 0.2
Transcripts per million (rpm) [32]: 300.2 rpm
Log2 differential normalized TPM ratio compared to glucose [33]: 1.3
Log2 differential normalized TPM ratio compared to lactose [33]: 0.7
Transcripts per million (rpm) [33]: 618.8 rpm
Log2 differential normalized TPM ratio compared to glucose [34]: 2.6
Log2 differential normalized TPM ratio compared to lactose [34]: 0.6
Transcripts per million (rpm) [34]: 76.9 rpm
Log2 differential normalized TPM ratio compared to glucose [35]: 3.7
Log2 differential normalized TPM ratio compared to lactose [35]: 2.2
Transcripts per million (rpm) [35]: 47.4 rpm
Log2 differential normalized TPM ratio compared to glucose [36]: 0.1
Log2 differential normalized TPM ratio compared to lactose [36]: −0.4
Transcripts per million (rpm) [36]: 23 rpm
Log2 differential normalized TPM ratio compared to glucose [37]: 1
Log2 differential normalized TPM ratio compared to lactose [37]: 0.2
Transcripts per million (rpm) [37]: 84.1 rpm
Log2 differential normalized TPM ratio compared to glucose [38]: 1.3
Log2 differential normalized TPM ratio compared to lactose [38]: 0.4
Transcripts per million (rpm) [38]: 8.4 rpm
Log2 differential normalized TPM ratio compared to glucose [39]: 1.2
Log2 differential normalized TPM ratio compared to lactose [39]: −0.2
Transcripts per million (rpm) [39]: 1.3 rpm
Log2 differential normalized TPM ratio compared to glucose [40]: 0.5
Log2 differential normalized TPM ratio compared to lactose [40]: 0.1
Transcripts per million (rpm) [40]: 10.8 rpm
Log2 differential normalized TPM ratio compared to glucose (LBA1723 Transposase, COG L): 0.5
Log2 differential normalized TPM ratio compared to lactose (LBA1723 Transposase, COG L): 0.2
Transcripts per million (rpm) (LBA1723 Transposase, COG L): 75.5 rpm
Log2 differential normalized TPM ratio compared to glucose [41]: 2.2
Log2 differential normalized TPM ratio compared to lactose [41]: 0.1
Transcripts per million (rpm) [41]: 75.4 rpm
Log2 differential normalized TPM ratio compared to glucose [42]: −0.9
Log2 differential normalized TPM ratio compared to lactose [42]: 0.2
Transcripts per million (rpm) [42]: 55.6 rpm
Log2 differential normalized TPM ratio compared to glucose (LBA1871 Neopullulanase, COG G): 0.9
Log2 differential normalized TPM ratio compared to lactose (LBA1871 Neopullulanase, COG G): 0.2
Transcripts per million (rpm) (LBA1871 Neopullulanase, COG G): 5.1 rpm
Log2 differential normalized TPM ratio compared to glucose [43]: 1
Log2 differential normalized TPM ratio compared to lactose [43]: 0.6
Transcripts per million (rpm) [43]: 6.2 rpm
Log2 differential normalized TPM ratio compared to glucose (LBA1873 Acetate kinase, COG C): 1.2
Log2 differential normalized TPM ratio compared to lactose (LBA1873 Acetate kinase, COG C): −0.2
Transcripts per million (rpm) (LBA1873 Acetate kinase, COG C): 8.3 rpm
Log2 differential normalized TPM ratio compared to glucose (LBA1878 Glycerol kinase, COG C): 0.1
Log2 differential normalized TPM ratio compared to lactose (LBA1878 Glycerol kinase, COG C): 0
Transcripts per million (rpm) (LBA1878 Glycerol kinase, COG C): 9.3 rpm
Log2 differential normalized TPM ratio compared to glucose [44]: −0.3
Log2 differential normalized TPM ratio compared to lactose [44]: 0.1
Transcripts per million (rpm) [44]: 428.6 rpm
number of up-regulated genes (RNA-seq, compared to glucose): 33 genes
number of uniquely induced genes (RNA-seq, up-regulated genes not shared with the other PGs): 0
Log2 differential normalized TPM ratio compared to glucose [45]: −0.2
Log2 differential normalized TPM ratio compared to lactose [45]: −0.9
Transcripts per million (rpm) [45]: 270.7 rpm
Log2 differential normalized TPM ratio compared to glucose [46]: 1.2
Log2 differential normalized TPM ratio compared to lactose [46]: 0.4
Transcripts per million (rpm) [46]: 1141 rpm
Log2 differential normalized TPM ratio compared to glucose [47]: 0.9
Log2 differential normalized TPM ratio compared to lactose [47]: 0.1
Transcripts per million (rpm) [47]: 30.2 rpm
Log2 differential normalized TPM ratio compared to glucose (gene LBA0282 (Hypothetical protein)): 0.7

From patent US20200222474A1, “COMPOSITIONS AND METHODS FOR INCREASING PHYTOCHEMICAL BIOAVAILABLITY AND BIOACTIVITY” (North Carolina State University, priority 2017, published 2020)
